This is an account of results in ChEMBL document CHEMBL5150002, “Molecular Glues for Targeted Protein Degradation: From Serendipity to Rational Discovery” (J Med Chem, 2021).

In test [1] the target is T1, DNA damage-binding protein 1/Cyclin-dependent kinase 12/Cyclin-K (Homo sapiens, UniProt O75909+Q16531+Q9NYV4). Put plainly: Molecular glue activity at human CDK12 (715 to 1052 residues)/Cyclin K/human DDB1-[…]-RBX1 expressed in baculovirus expression system assessed as Cyclin K protein degradation.
T1 sequence (O75909 whole entry, the tested form may be a part): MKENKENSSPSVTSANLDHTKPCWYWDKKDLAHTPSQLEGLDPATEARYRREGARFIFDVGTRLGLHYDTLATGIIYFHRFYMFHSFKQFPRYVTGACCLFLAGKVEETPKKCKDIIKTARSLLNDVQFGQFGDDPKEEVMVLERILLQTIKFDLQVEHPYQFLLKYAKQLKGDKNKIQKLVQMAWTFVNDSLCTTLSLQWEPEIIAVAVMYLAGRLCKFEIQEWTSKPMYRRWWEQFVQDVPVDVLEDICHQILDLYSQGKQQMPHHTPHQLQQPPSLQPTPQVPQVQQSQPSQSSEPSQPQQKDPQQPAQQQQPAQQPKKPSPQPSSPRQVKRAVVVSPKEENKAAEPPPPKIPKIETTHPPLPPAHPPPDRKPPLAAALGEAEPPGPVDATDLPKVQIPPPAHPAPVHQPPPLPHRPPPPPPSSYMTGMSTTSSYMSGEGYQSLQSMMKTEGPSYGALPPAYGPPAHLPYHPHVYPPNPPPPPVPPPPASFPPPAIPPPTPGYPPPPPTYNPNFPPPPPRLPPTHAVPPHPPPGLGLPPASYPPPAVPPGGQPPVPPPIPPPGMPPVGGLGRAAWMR
T1 sequence (Q9NYV4 whole entry, the tested form may be a part): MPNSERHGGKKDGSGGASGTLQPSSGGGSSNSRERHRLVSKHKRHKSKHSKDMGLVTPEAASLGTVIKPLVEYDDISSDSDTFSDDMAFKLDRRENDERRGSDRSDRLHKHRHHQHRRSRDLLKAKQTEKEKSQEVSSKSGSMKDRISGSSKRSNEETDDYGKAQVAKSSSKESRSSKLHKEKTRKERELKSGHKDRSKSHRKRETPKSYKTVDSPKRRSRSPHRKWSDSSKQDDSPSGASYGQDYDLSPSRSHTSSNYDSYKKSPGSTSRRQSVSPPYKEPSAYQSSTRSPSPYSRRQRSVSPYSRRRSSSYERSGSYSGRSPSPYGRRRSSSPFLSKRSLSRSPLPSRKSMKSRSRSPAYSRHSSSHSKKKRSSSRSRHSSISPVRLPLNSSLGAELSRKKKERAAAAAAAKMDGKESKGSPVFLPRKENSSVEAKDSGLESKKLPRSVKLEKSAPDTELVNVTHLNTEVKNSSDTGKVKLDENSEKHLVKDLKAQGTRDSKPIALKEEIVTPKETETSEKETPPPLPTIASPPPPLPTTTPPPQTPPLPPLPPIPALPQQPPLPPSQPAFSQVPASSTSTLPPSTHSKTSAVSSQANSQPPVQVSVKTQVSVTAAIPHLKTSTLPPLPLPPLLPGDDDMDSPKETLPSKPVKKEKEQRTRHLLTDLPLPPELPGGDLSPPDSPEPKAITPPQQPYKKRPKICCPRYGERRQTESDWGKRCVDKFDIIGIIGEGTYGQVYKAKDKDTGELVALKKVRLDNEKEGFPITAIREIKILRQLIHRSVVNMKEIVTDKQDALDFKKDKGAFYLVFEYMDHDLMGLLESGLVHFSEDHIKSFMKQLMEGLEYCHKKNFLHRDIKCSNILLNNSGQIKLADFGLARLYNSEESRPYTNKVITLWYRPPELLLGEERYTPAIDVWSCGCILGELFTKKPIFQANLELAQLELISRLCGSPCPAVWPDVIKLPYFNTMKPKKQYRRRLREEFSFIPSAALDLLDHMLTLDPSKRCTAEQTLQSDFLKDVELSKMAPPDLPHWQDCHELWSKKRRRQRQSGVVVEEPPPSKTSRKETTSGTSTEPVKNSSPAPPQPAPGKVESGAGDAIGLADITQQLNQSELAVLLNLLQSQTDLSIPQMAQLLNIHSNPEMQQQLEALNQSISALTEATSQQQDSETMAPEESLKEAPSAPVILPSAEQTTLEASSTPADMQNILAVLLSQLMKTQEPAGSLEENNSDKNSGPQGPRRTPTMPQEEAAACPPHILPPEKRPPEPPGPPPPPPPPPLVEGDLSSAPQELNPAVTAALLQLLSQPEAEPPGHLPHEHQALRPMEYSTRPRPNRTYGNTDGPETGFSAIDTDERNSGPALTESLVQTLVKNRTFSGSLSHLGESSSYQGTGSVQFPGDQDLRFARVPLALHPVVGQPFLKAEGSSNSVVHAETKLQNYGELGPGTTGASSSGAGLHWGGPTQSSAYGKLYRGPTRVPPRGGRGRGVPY
T1 sequence (Q16531 whole entry, the tested form may be a part): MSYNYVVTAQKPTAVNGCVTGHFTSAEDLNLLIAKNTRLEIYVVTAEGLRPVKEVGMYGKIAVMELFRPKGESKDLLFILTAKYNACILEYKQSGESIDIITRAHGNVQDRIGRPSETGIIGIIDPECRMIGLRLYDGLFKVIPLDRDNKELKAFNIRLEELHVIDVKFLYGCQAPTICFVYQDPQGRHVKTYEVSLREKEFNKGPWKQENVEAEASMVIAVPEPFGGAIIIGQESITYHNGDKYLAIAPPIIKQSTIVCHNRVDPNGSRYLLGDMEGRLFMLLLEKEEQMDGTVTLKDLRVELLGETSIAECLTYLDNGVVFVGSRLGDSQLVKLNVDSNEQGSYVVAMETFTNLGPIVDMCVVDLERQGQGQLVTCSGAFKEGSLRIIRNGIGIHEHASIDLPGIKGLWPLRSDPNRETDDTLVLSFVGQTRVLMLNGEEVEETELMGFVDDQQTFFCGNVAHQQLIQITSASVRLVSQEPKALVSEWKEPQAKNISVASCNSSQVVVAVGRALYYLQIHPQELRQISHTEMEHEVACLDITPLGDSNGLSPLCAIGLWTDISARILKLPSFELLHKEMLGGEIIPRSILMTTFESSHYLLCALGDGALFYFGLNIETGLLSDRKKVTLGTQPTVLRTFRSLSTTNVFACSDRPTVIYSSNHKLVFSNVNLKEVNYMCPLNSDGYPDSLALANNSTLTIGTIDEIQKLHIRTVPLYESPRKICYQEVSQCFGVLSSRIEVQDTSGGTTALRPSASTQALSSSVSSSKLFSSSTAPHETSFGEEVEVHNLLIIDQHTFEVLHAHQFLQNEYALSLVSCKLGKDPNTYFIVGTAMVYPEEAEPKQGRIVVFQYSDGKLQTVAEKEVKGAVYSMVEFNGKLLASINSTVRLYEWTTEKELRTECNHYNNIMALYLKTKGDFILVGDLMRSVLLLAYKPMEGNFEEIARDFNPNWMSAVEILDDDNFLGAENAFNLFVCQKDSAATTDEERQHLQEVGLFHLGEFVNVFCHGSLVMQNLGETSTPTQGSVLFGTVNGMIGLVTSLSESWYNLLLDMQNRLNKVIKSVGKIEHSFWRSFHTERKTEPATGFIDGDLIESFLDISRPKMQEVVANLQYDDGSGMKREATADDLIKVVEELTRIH
Test [2] concerns the target T1, DNA damage-binding protein 1/Cyclin-dependent kinase 12/Cyclin-K. The experiment in a line: Molecular glue activity at human CDK12/CCNK (11 to 267 residues)/human DDB1-CUL4-RBX1 expressed in baculovirus expression system in human 293 TA cells assessed as CCNK protein degradation.

A word on the EC50: it is the midpoint of the concentration-response curve. `Cc1cccc(Nc2nc(CC(=O)Nc3ncc(C)s3)cs2)n1`: the values for the EC50 in test [1] and in test [2] were 0.461 µM and 0.132 µM, respectively.

For the compound `Cc1cnc(NC(=O)Cc2csc(Nc3cccc(CO)n3)n2)s1`, in test [2], the EC50 amounted to 0.041 µM.
